The values below are quoted from earlier work in US5356784A, “Determination of concentration by affinity titration” (Terrapin Technologies, Inc., priority 1993, dated 1994).

The data set concerns Concanavalin A (ConA). The conditions noted are these: ConA with bacterial dextran from strain B-1355-5; materials described by Scott et al. PNAS 1992.

As for `CO[C@H]1O[C@H](CO)[C@@H](O)[C@H](O)[C@@H]1O` [MeMan, methyl-alpha-Man], the “inhibition of precipitation of ConA-dextran” value (shortened to “inhibition”) is listed as “inhibited in a dosedependent manner”.

With “MYWYPY: peptide identified by screening a phage epitope display library; inhibits Con A-dextran precipitation”, the “inhibition” value was “inhibit”. As for “VGRAFS: peptide identified by screening a phage epitope display library; inhibits Con A-dextran precipitation”, the “inhibition” value is recorded as “inhibit”.
